Test results taken from PubChem BioAssay AID250 (DTP/NCI, 2004).
“And” between values parts separate entries of the source, which are not always exact repeats. Equal entries are not always repeated. Toxic doses and inconclusive results are not listed.

System: BDF1 mice, L1210 leukemia sc, survival T/C
Experiment: NCI In Vivo Anticancer Drug Screen. Data for tumor model L1210 Leukemia (subcutaneous) in B6D2F1 (BDF1) mice
Settings: higher = longer survival
In short: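 Mice carrying transplanted tumors received test compounds, and survival or tumor size was measured. Values are the treated-group measurement (T) divided by that of the vehicle-treated control group (C).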

COc1cccc2c1C(=O)c1c(O)c3c(c(O)c1C2=O)C[C@@](O)(C(C)=O)C[C@@H]3OC1CC(N)C(O)C(C)O1 (some centres undefined)
T/C (endpoint: median survival time, dose: 1.0 mg/kg/injection, schedule: Q04DX003 (ip), vehicle: saline): 88 % of control | T/C (endpoint: median survival time, dose: 2.0 mg/kg/injection, schedule: Q04DX003 (ip), vehicle: saline): 90 % of control | T/C (endpoint: median survival time, dose: 3.0 mg/kg/injection, schedule: Q01DX Z (sc), vehicle: saline): 95 % of control and 100 % of control | T/C (endpoint: median survival time, dose: 3.1 mg/kg/injection, schedule: Q01DX Z (sc), vehicle: saline): 95 % of control | T/C (endpoint: median survival time, dose: 4.0 mg/kg/injection, schedule: Q04DX003 (ip), vehicle: saline): 89 % of control | T/C (endpoint: median survival time, dose: 5.0 mg/kg/injection, schedule: Q01DX Z (sc), vehicle: saline): 100 % of control and 115 % of control | T/C (endpoint: median survival time, dose: 5.0 mg/kg/injection, schedule: Q01DX Z (sc), vehicle: water): 104 % of control | T/C (endpoint: median survival time, dose: 5.2 mg/kg/injection, schedule: Q01DX Z (sc), vehicle: saline): 100 % of control | T/C (endpoint: median survival time, dose: 6.5 mg/kg/injection, schedule: Q04DX003 (sc), vehicle: water): 105 % of control and 111 % of control | T/C (endpoint: median survival time, dose: 8.4 mg/kg/injection, schedule: Q01DX Z (sc), vehicle: saline): 150 % of control | T/C (endpoint: median survival time, dose: 10.8 mg/kg/injection, schedule: Q04DX003 (sc), vehicle: water): 109 % of control and 111 % of control | T/C (endpoint: median survival time, dose: 14.0 mg/kg/injection, schedule: Q01DX Z (sc), vehicle: saline): 120 % of control | T/C (endpoint: median survival time, dose: 14.0 mg/kg/injection, schedule: Q01DX Z (sc), vehicle: water): 123 % of control | T/C (endpoint: median survival time, dose: 23.0 mg/kg/injection, schedule: Q01DX Z (sc), vehicle: saline): 110 % of control and 120 % of control | T/C (endpoint: median survival time, dose: 23.0 mg/kg/injection, schedule: Q01DX Z (sc), vehicle: water): 109 % of control | T/C (endpoint: median survival time, dose: 24.0 mg/kg/injection, schedule: Q01DX Z (sc), vehicle: saline): 120 % of control | T/C (endpoint: median survival time, dose: 30.0 mg/kg/injection, schedule: Q04DX003 (sc), vehicle: water): 99 % of control and 100 % of control | T/C (endpoint: median survival time, dose: 39.0 mg/kg/injection, schedule: Q01DX Z (sc), vehicle: saline): 110 % of control | T/C (endpoint: median survival time, dose: 39.0 mg/kg/injection, schedule: Q01DX Z (sc), vehicle: water): 104 % of control | T/C (endpoint: median survival time, dose: 40.0 mg/kg/injection, schedule: Q01DX Z (sc), vehicle: saline): 110 % of control | T/C (endpoint: median survival time, dose: 65.0 mg/kg/injection, schedule: Q01DX Z (sc), vehicle: water): 95 % of control

CS(=O)(=O)Nc1ccc(Nc2c3ccccc3nc3cc(N)ccc23)cc1
T/C (endpoint: mean survival time, dose: 1.0 mg/kg/injection, schedule: Q01DX009 (ip), vehicle: saline): 103 % of control | T/C (endpoint: mean survival time, dose: 2.0 mg/kg/injection, schedule: Q01DX009 (ip), vehicle: saline): 99 % of control

C=CCNC(=O)NCC=C
T/C (endpoint: median survival time, dose: 100.0 mg/kg/injection, schedule: Q01DX001 (ip), vehicle: saline): 105 % of control | T/C (endpoint: median survival time, dose: 100.0 mg/kg/injection, schedule: Q01DX001 (sc), vehicle: saline): 111 % of control | T/C (endpoint: median survival time, dose: 100.0 mg/kg/injection, schedule: Q04DX003 (ip), vehicle: saline): 111 % of control | T/C (endpoint: median survival time, dose: 100.0 mg/kg/injection, schedule: Q04DX003 (sc), vehicle: saline): 111 % of control | T/C (endpoint: median survival time, dose: 200.0 mg/kg/injection, schedule: Q01DX001 (ip), vehicle: saline): 111 % of control | T/C (endpoint: median survival time, dose: 200.0 mg/kg/injection, schedule: Q01DX001 (sc), vehicle: saline): 111 % of control | T/C (endpoint: median survival time, dose: 200.0 mg/kg/injection, schedule: Q01DX009 (ip), vehicle: saline): 150 % of control | T/C (endpoint: median survival time, dose: 200.0 mg/kg/injection, schedule: Q04DX003 (ip), vehicle: saline): 122 % of control

C=CC(COC(C)=O)N1CC1 (centres undefined)
T/C (endpoint: median survival time, dose: 4.7 mg/kg/injection, schedule: Q01DX Z (sc), vehicle: saline): 100 % of control | T/C (endpoint: median survival time, dose: 7.8 mg/kg/injection, schedule: Q01DX Z (sc), vehicle: saline): 100 % of control | T/C (endpoint: median survival time, dose: 13.0 mg/kg/injection, schedule: Q01DX Z (sc), vehicle: saline): 100 % of control | T/C (endpoint: median survival time, dose: 36.0 mg/kg/injection, schedule: Q01DX Z (sc), vehicle: saline): 100 % of control | T/C (endpoint: median survival time, dose: 60.0 mg/kg/injection, schedule: Q01DX Z (sc), vehicle: saline): 100 % of control

CC(C)CSc1ncnc2nc[nH]c12
T/C (endpoint: median survival time, dose: 38.9 mg/kg/injection, schedule: Q01DX Z (sc), vehicle: methylcellulose (MC)): 100 % of control | T/C (endpoint: median survival time, dose: 64.8 mg/kg/injection, schedule: Q01DX Z (sc), vehicle: methylcellulose (MC)): 100 % of control | T/C (endpoint: median survival time, dose: 108.0 mg/kg/injection, schedule: Q01DX Z (sc), vehicle: methylcellulose (MC)): 100 % of control
